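Tested at 5 concentrations; 48 h exposure; 96-well plates; endpoints linearly interpolated, else capped at highest concentration. Abbreviation: GI50, concentration required for 50% inhibition of growth.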 Active and inactive are the calls of the source. Cut-off read from the data, not from the text of the source: active = GI50 up to about 1.1 µM and inactive = higher.
Key:
Assay in all cases: NCI tumour cell line growth inhibition, 48 h
SF-295 = test system: SF-295
HL-60 = test system: HL-60
A549 = test system: A549
786-0 = test system: 786-0
COLO 205 = test system: COLO 205
SK-MEL-5 = test system: SK-MEL-5
EKVX = test system: EKVX
OVCAR-5 = test system: OVCAR-5
KM12 = test system: KM12
HT-29 = test system: HT-29
ACHN = test system: ACHN
PC-3 = test system: PC-3
UACC-62 = test system: UACC-62
OVCAR-3 = test system: OVCAR-3
CCRF-CEM = test system: CCRF-CEM
UACC-257 = test system: UACC-257
HCC 2998 = test system: HCC 2998
M14 = test system: M14
SR = test system: SR
LXFL 529 = test system: LXFL 529

SMILES	GI50 (SF-295)	GI50 (HL-60)	GI50 (A549)	GI50 (786-0)	GI50 (COLO 205)	GI50 (SK-MEL-5)	GI50 (EKVX)	GI50 (OVCAR-5)	GI50 (KM12)	GI50 (HT-29)	GI50 (ACHN)	GI50 (PC-3)	GI50 (UACC-62)	GI50 (OVCAR-3)	GI50 (CCRF-CEM)	GI50 (UACC-257)	GI50 (HCC 2998)	GI50 (M14)	GI50 (SR)	GI50 (LXFL 529)
CN1CN(c2ccccc2)C2(CCN(Cc3csc4ccccc34)CC2)C1=O	11.8 µM (inactive)	4.39 µM (inactive)	18.6 µM (inactive)	19.4 µM (inactive)	11.1 µM (inactive)	7.78 µM (inactive)	7.53 µM (inactive)	1.63 µM (inactive)	11.5 µM (inactive)	4.83 µM (inactive)	17.6 µM (inactive)	9.27 µM (inactive)	22.8 µM (inactive)	8.85 µM (inactive)	17.5 µM (inactive)	13.2 µM (inactive)	13.4 µM (inactive)	13.7 µM (inactive)	4.45 µM (inactive)	–
O=[N+]([O-])c1cccc2nc3ccccc3c(NCCc3cccc[n+]3[O-])c12	< 0.0368 µM (active)	< 0.0427 µM (active)	< 0.0159 µM (active)	< 0.0168 µM (active)	< 0.01 µM (active)	< 0.01 µM (active)	< 0.0212 µM (active)	< 0.0194 µM (active)	< 0.0328 µM (active)	0.0103 µM (active)	0.0103 µM (active)	< 0.0391 µM (active)	0.052 µM (active)	< 0.0385 µM (active)	< 0.0318 µM (active)	< 0.0231 µM (active)	< 0.01 µM (active)	< 0.0105 µM (active)	< 0.01 µM (active)	–
Cc1cc(=O)oc2cc(OCC(O)COC(C)C)ccc12 (stereo unspecified)	> 100 µM (inactive)	> 100 µM (inactive)	> 100 µM (inactive)	> 100 µM (inactive)	> 100 µM (inactive)	> 100 µM (inactive)	> 100 µM (inactive)	> 100 µM (inactive)	> 100 µM (inactive)	> 100 µM (inactive)	> 100 µM (inactive)	> 100 µM (inactive)	> 100 µM (inactive)	> 100 µM (inactive)	> 100 µM (inactive)	> 100 µM (inactive)	> 100 µM (inactive)	> 100 µM (inactive)	> 100 µM (inactive)	–
O=C1C=CC(=O)c2c1cc([N+](=O)[O-])c1ccoc21	19.1 µM (inactive)	0.743 µM (active)	20.9 µM (inactive)	1.77 µM (inactive)	2.49 µM (inactive)	16.4 µM (inactive)	17.8 µM (inactive)	18.5 µM (inactive)	15.9 µM (inactive)	17.3 µM (inactive)	1.82 µM (inactive)	15.6 µM (inactive)	15.8 µM (inactive)	11.5 µM (inactive)	2.1 µM (inactive)	10.7 µM (inactive)	19.5 µM (inactive)	6.17 µM (inactive)	5.37 µM (inactive)	–
CCN(CC)CCn1c(=O)c2cccnc2n2c3c(=O)n(C)c(=O)n(C)c3nc12	> 100 µM (inactive)	69 µM (inactive)	59.4 µM (inactive)	> 100 µM (inactive)	70.3 µM (inactive)	47.1 µM (inactive)	> 100 µM (inactive)	> 100 µM (inactive)	> 100 µM (inactive)	> 100 µM (inactive)	34.8 µM (inactive)	> 100 µM (inactive)	57 µM (inactive)	> 100 µM (inactive)	64.6 µM (inactive)	> 100 µM (inactive)	72.4 µM (inactive)	> 100 µM (inactive)	38.5 µM (inactive)	–
CCOC(=O)C(CO)c1nc2c([nH]c1=O)c(=O)n(C)c(=O)n2C (stereo unspecified)	> 100 µM (inactive)	> 100 µM (inactive)	> 100 µM (inactive)	> 100 µM (inactive)	> 100 µM (inactive)	0.579 µM (active)	> 100 µM (inactive)	> 100 µM (inactive)	> 100 µM (inactive)	> 100 µM (inactive)	> 100 µM (inactive)	> 100 µM (inactive)	> 100 µM (inactive)	> 100 µM (inactive)	> 100 µM (inactive)	> 100 µM (inactive)	> 100 µM (inactive)	> 100 µM (inactive)	> 100 µM (inactive)	–
CC12OC(=O)C(C#N)C1(C)C1C(=O)CCCC12 (stereo unspecified)	> 100 µM (inactive)	> 100 µM (inactive)	> 100 µM (inactive)	> 100 µM (inactive)	> 100 µM (inactive)	> 100 µM (inactive)	> 100 µM (inactive)	> 100 µM (inactive)	> 100 µM (inactive)	–	> 100 µM (inactive)	–	> 100 µM (inactive)	> 100 µM (inactive)	> 100 µM (inactive)	–	–	> 100 µM (inactive)	–	> 100 µM (inactive)
COc1c(CC=C(C)C)c(O)c(C(CC(C)C)c2c(O)c3c(c(C(C)=O)c2O)OC(C(C)(C)O)C3)c(O)c1C(C)=O (stereo unspecified)	4.55 µM (inactive)	3.52 µM (inactive)	4.21 µM (inactive)	5.65 µM (inactive)	3.21 µM (inactive)	2.22 µM (inactive)	3.76 µM (inactive)	6.93 µM (inactive)	3.7 µM (inactive)	4.86 µM (inactive)	4.42 µM (inactive)	3.15 µM (inactive)	4.94 µM (inactive)	6.08 µM (inactive)	2.58 µM (inactive)	4.18 µM (inactive)	3.63 µM (inactive)	6.05 µM (inactive)	2.17 µM (inactive)	–
O=C(O)COc1cc(-c2ccccc2)nc2ccc(F)cc12	> 100 µM (inactive)	> 100 µM (inactive)	> 100 µM (inactive)	> 100 µM (inactive)	> 100 µM (inactive)	> 100 µM (inactive)	> 100 µM (inactive)	> 100 µM (inactive)	> 100 µM (inactive)	> 100 µM (inactive)	> 100 µM (inactive)	> 100 µM (inactive)	> 100 µM (inactive)	> 100 µM (inactive)	> 100 µM (inactive)	> 100 µM (inactive)	98.6 µM (inactive)	> 100 µM (inactive)	> 100 µM (inactive)	–
N#Cc1c(C#N)c(-c2cccc([N+](=O)[O-])c2)n(-c2ccccc2)c1N	63.2 µM (inactive)	> 100 µM (inactive)	33.8 µM (inactive)	51.5 µM (inactive)	> 100 µM (inactive)	> 100 µM (inactive)	> 100 µM (inactive)	> 100 µM (inactive)	> 100 µM (inactive)	> 100 µM (inactive)	> 100 µM (inactive)	> 100 µM (inactive)	66.1 µM (inactive)	> 100 µM (inactive)	> 100 µM (inactive)	> 100 µM (inactive)	> 100 µM (inactive)	> 100 µM (inactive)	> 100 µM (inactive)	–
CCN(CC)c1ccc(C2N3CCCCC3[C@@H]3c4[nH]c5ccccc5c4CCN23)cc1 (stereo partly specified)	53.7 µM (inactive)	7.43 µM (inactive)	49.1 µM (inactive)	37.8 µM (inactive)	27.4 µM (inactive)	17.3 µM (inactive)	74.8 µM (inactive)	51.3 µM (inactive)	–	16.1 µM (inactive)	27 µM (inactive)	–	19.5 µM (inactive)	23.9 µM (inactive)	16.3 µM (inactive)	27.7 µM (inactive)	–	24.8 µM (inactive)	–	21.3 µM (inactive)
CC(C)(C)c1cc(C(=O)/C=C/c2ccc3c(c2)CCO3)cc(C(C)(C)C)c1O	1.69 µM (inactive)	0.951 µM (active)	1.63 µM (inactive)	1.12 µM (active)	0.701 µM (active)	0.908 µM (active)	0.729 µM (active)	2.39 µM (inactive)	0.49 µM (active)	1.04 µM (active)	1.69 µM (inactive)	0.891 µM (active)	1.16 µM (inactive)	5.07 µM (inactive)	1.07 µM (active)	0.792 µM (active)	1.89 µM (inactive)	1.17 µM (inactive)	0.548 µM (active)	–
COc1ccc2ccc3oc(=O)c(C)cc3c2c1	> 100 µM (inactive)	> 100 µM (inactive)	> 100 µM (inactive)	> 100 µM (inactive)	> 100 µM (inactive)	> 100 µM (inactive)	8.32 µM (inactive)	> 100 µM (inactive)	> 100 µM (inactive)	> 100 µM (inactive)	> 100 µM (inactive)	> 100 µM (inactive)	10.9 µM (inactive)	> 100 µM (inactive)	> 100 µM (inactive)	> 100 µM (inactive)	39.6 µM (inactive)	> 100 µM (inactive)	> 100 µM (inactive)	–
O=C(O)CP(=O)(O)O	> 100 µM (inactive)	> 100 µM (inactive)	> 100 µM (inactive)	> 100 µM (inactive)	> 100 µM (inactive)	> 100 µM (inactive)	> 100 µM (inactive)	> 100 µM (inactive)	> 100 µM (inactive)	> 100 µM (inactive)	> 100 µM (inactive)	> 100 µM (inactive)	> 100 µM (inactive)	> 100 µM (inactive)	> 100 µM (inactive)	> 100 µM (inactive)	> 100 µM (inactive)	> 100 µM (inactive)	> 100 µM (inactive)	–
COc1cc(C2c3cc4c(cc3[C@@H](NCCN3CCCCC3)C3COC(=O)[C@H]23)OCO4)cc(OC)c1O (stereo partly specified)	0.107 µM (active)	0.0426 µM (active)	0.0656 µM (active)	0.179 µM (active)	1.01 µM (active)	0.394 µM (active)	1.55 µM (inactive)	1.41 µM (inactive)	1.01 µM (active)	1.19 µM (inactive)	0.486 µM (active)	–	0.272 µM (active)	0.78 µM (active)	0.0378 µM (active)	2.78 µM (inactive)	–	0.273 µM (active)	–	1.8 µM (inactive)
